Source: US6426360B1, “4,5-substituted imidazolyl compounds for the treatment of inflammation” (G D Searle & Co., priority 1994, dated 2002)
Marks after values point to notes of the source that are not given here.

Tests used:
carrageenan foot edema = assay: Rat Carrageenan Foot Pad Edema Test; type: in vivo; conditions: 30 mg/kg body weight, oral, dosed 1 h before carrageenan, foot volume 3 h after carrageenan
Method: The carrageenan foot edema test was performed with materials, reagents and procedures essentially as described by Winter, et al., (Proc. Soc. Exp. Biol. Med., 111, 544 (1962)). Male Sprague-Dawley rats were selected in each group so that the average body weight was as close as possible. Rats were fasted with free access to water for over sixteen hours prior to the test. The rats were dosed orally (1 ml) with compounds suspended in vehicle containing 0.5% methylcellulose and 0.025% surfactant, or with vehicle alone. One hour later a subplantar injection of 0.1 ml of 1% solution of carrageenan/sterile 0.9% saline was administered and the volume of the injected foot was measured with a displacement plethysmometer connected to a pressure transducer with a digital indicator. Three hours after the injection of the carrageenan, the volume of the foot was again measured. The average foot swelling in a group of drug-treated animals was compared with that of a group of placebo-treated animals and the. percentage inhibition of edema was determined (Otterness and Bliven, Laboratory Models for Testing NSAIDs, in Non-steroidal Anti-Inflammatory Drugs, (J. Lombardino, ed. 1985)).

[1] = test system: carrageenan-induced hyperalgesic foot withdrawal; assay: Rat Carrageenan-induced Analgesia Test; type: in vivo; conditions: oral, 3 h after carrageenan
Method: The analgesia test using rat carrageenan was performed with materials, reagents and procedures essentially as described by Hargreaves, et al., (Pain, 32, 77 (1988)). Male Sprague-Dawley rats were treated as previously described for the Carrageenan Foot Pad Edema test. Three hours after the injection of the carrageenan, the rats were placed in a special plexiglass container with a transparent floor having a high intensity lamp as a radiant heat source, positionable under the floor. After an initial twenty minute period, thermal stimulation was begun on either the injected foot or on the contralateral uninjected foot. A photoelectric cell turned off the lamp and timer when light was interrupted by paw withdrawal. The time until the rat withdraws its foot was then measured. The withdrawal latency in seconds was determined for the control and drug-treated groups, and percent inhibition of the hyperalgesic foot withdrawal determined.

Human COX II = target: T1, Human COX II (Homo sapiens, UniProt P35354); assay: COX II activity in vitro (PGE2 ELISA, recombinant enzyme); type: biochemical; conditions: arachidonic acid 10 μM, pre-incubation 10-20 minutes; read-out: Human COX II ID50
T1 construct: A 2.0 kb fragment containing the coding region of either human or murine COX-I or human or murine COX-II; made in house; host or cells: SF9 insect cells (recombinant baculovirus, transfer vector pVL1393)
T1 sequence (P35354 18-604): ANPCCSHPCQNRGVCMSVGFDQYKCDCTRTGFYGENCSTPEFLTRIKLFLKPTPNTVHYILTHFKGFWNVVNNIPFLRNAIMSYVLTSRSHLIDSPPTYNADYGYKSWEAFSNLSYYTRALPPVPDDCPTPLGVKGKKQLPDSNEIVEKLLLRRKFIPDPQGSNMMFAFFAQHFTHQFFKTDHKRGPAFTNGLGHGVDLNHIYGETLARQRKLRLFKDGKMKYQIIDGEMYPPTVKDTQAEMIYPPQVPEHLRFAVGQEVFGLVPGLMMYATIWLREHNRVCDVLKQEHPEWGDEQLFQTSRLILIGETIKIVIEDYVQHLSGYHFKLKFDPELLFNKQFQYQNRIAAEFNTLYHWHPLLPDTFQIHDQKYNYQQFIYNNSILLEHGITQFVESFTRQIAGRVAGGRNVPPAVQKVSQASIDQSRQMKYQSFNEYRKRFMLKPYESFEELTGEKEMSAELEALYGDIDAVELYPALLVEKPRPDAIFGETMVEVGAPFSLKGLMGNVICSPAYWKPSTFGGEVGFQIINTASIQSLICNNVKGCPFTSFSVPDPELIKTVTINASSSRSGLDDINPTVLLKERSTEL
Method: The COX II inhibition activity of the compounds of this invention illustrated in the Examples was determined by the following methods.
(§1) A 2.0 kb fragment containing the coding region of either human or murine COX-I or human or murine COX-II was cloned into a BamH1 site of the baculovirus transfer vector pVL1393 (Invitrogen) to generate the baculovirus transfer vectors for COX-I and COX-II in a manner similar to the method of D. R. O'Reilly et al (Baculovirus Expression Vectors: A Laboratory Manual (1992)). Recombinant baculoviruses were isolated by transfecting 4 μg of baculovirus transfer vector DNA into SF9 insect cells ([…]) along with 200 ng of linearized baculovirus plasmid DNA by the calcium phosphate method. See M. D. Summers and G. E. Smith, A Manual of Methods for Baculovirus Vectors and Insect Cell Culture Procedures, Texas Agric. Exp. Station Bull. 1555 (1987). Recombinant viruses were purified by three rounds of plaque purification and high titer (10E7-10E8 pfu/ml), stocks of virus were prepared. For large scale production, SF9 insect cells were infected in 10 liter fermentors (0.5×10^6/ml) with the recombinant baculovirus stock such that the multiplicity of infection was 0.1. After 72 hours the cells were centrifuged and the cell pellet homogenized in Tris/Sucrose (50 mM: 25%, pH 8.0) containing 1% 3-[(3-cholamidopropyl)dimethylammonio]-1-propanesulfonate (CHAPS). The homogenate was centrifuged at 10,000×G for 30 minutes, and the resultant supernatant was stored at −80° C. before being assayed for COX activity.
(§2) COX activity was assayed as PGE2 formed/μg protein/time using an ELISA to detect the prostaglandin released. CHAPS-solubilized insect cell membranes containing the appropriate COX enzyme were incubated in a potassium phosphate buffer (50 mM, pH 8.0) containing epinephrine, phenol, and heme with the addition of arachidonic acid (10 μM). Compounds were pre-incubated with the enzyme for 10-20 minutes prior to the addition of arachidonic acid. Any reaction between the arachidonic acid and the enzyme was stopped after ten minutes at 37° C./room temperature by transferring 40 μl of reaction mix into 160 μl ELISA buffer and 25 μM indomethacin. The PGE2 formed was measured by standard ELISA technology (Cayman Chemical).

Human COX I = target: T2, Human COX I (Homo sapiens, UniProt P23219); assay: COX I activity in vitro (PGE2 ELISA, recombinant enzyme); type: biochemical; conditions: arachidonic acid 10 μM, pre-incubation 10-20 minutes; read-out: Human COX I ID50
T2 construct: A 2.0 kb fragment containing the coding region of either human or murine COX-I or human or murine COX-II; made in house; host or cells: SF9 insect cells (recombinant baculovirus, transfer vector pVL1393)
Method: as §1, §2

T2 sequence (P23219 24-599): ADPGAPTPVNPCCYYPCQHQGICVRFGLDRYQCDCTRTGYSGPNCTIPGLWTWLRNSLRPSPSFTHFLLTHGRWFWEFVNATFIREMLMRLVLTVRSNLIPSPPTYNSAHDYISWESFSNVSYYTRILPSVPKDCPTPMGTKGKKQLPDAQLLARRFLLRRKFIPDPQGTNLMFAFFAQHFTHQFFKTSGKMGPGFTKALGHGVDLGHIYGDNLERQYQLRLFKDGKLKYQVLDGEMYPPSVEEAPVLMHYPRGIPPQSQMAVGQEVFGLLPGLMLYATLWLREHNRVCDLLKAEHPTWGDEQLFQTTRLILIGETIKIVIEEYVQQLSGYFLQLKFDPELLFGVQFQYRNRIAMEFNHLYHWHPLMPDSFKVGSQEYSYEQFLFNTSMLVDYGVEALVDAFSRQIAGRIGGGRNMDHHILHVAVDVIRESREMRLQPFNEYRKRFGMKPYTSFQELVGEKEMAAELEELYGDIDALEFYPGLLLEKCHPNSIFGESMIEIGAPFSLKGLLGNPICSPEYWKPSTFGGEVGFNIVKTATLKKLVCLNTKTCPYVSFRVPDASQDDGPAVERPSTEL

SMILES	IC50 (Human COX II) [µM]	IC50 (Human COX I) [µM]	melting point	RAT PAW EDEMA % Inhibition (carrageenan foot edema) [%]	ANALGESIA % Inhibition ([1]; 50 mg/kg body weight)	ANALGESIA % Inhibition ([1]; 30 mg/kg body weight) [%]
Cc1ccc(-c2[nH]c(C(F)(F)F)nc2-c2ccc(S(C)(=O)=O)cc2)cc1 [Example 16, 5-(4-Methylphenyl)-4-[4-(methylsulfonyl)phenyl]-2-(trifluoromethyl)-1H-imidazole]	0.6	20	234 to 238 °C	–	–	–
CS(=O)(=O)c1ccc(-c2nc(C(F)(F)F)[nH]c2-c2ccc3ccccc3c2)cc1 [Example 14]	0.6	2	228 to 230 °C	–	–	–
CN(C)c1ccc(-c2[nH]c(C(F)(F)F)nc2-c2ccc(S(C)(=O)=O)cc2)cc1 [Example 48, N,N-Dimethyl-4-[4-[4-(methylsulfonyl)phenyl]-2-(trifluoromethyl)-1H-imidazol-5-yl]benzenamine]	8.7	> 100	248 to 251 °C	–	–	–
COc1ccc(-c2[nH]c(C(F)(F)F)nc2-c2ccc(S(C)(=O)=O)cc2)cc1F [Example 10, 5-(3-Fluoro-4-methoxyphenyl)-4-[4-(methylsulfonyl)phenyl]-2-(trifluoromethyl)-1H-imidazole]	1.2	63.5	228 to 234 °C	–	–	–
CS(=O)(=O)c1ccc(-c2nc(/C=C/c3ccccc3)[nH]c2-c2ccc(F)cc2)cc1 [Example 3, 5-(4-Fluorophenyl)-4-(4-methylsulfonylphenyl)-2-(2-phenyl-trans-eth-1-ene)-1H-imidazole]	0.2	2.2	221 to 224 °C	–	–	–
CS(=O)(=O)c1ccc(-c2nc(C(F)(F)F)[nH]c2-c2ccc(F)cc2)cc1 [Example 1, 5-(4-Fluorophenyl)-4-(4-methylsulfonylphenyl)-2-trifluoromethyl-1H-imidazole]	0.2	> 100	249 to 250 °C (dec.)	22	–	25
CS(=O)(=O)c1ccc(-c2nc(CO)[nH]c2-c2ccc(F)cc2)cc1 [Example 9, 5-(4-Fluorophenyl)-2-hydroxymethyl-4-[4-(methylsulfonyl)phenyl]imidazole]	5.1	> 100	115 to 117 °C	–	–	–

Further lines, with some results ahead:

IC50 (Human COX II) [µM]	IC50 (Human COX I) [µM]	melting point	SMILES	RAT PAW EDEMA % Inhibition (carrageenan foot edema) [%]	ANALGESIA % Inhibition ([1]; 50 mg/kg body weight)	ANALGESIA % Inhibition ([1]; 30 mg/kg body weight) [%]
1.4	> 100	95 to 97 °C	CS(=O)(=O)c1ccc(-c2nc(C(F)(F)F)[nH]c2-c2cccs2)cc1 [Example 70, 4-[4-(Methylsulfonyl)phenyl]-5-(2-thiophenyl)-2-(trifluoromethyl)-1H-imidazole]	27	29* %	–
6.4	> 100	212 °C	COC(C)c1nc(-c2ccc(F)cc2)c(-c2ccc(S(C)(=O)=O)cc2)[nH]1 (centres unmarked) [Example 94, 4-(4-Fluorophenyl)-2-(1-methoxyethyl)-5-[4-(methyl-sulfonyl)phenyl]-1H-imidazole]	–	–	–
55	10.8	158 to 161 °C	CS(=O)(=O)c1ccc(-c2[nH]c(S)nc2-c2ccc(F)cc2)cc1 [Example 49, 4-(4-Fluorophenyl)-5-[4-(methylsulfonyl)phenyl]-1H-imidazole-2-thiol]	–	–	–
8.3	> 100	169 °C	COCc1nc(-c2ccc(S(C)(=O)=O)cc2)c(-c2ccc(F)cc2)[nH]1 [Example 79, 5-(4-Fluorophenyl)-2-(methoxymethyl)-4-[4-(methylsulfonyl)-phenyl]-1H-imidazole]	–	–	–
3.9	> 100	126 to 130 °C	CS(=O)(=O)c1ccc(-c2[nH]c(C(O)C(F)(F)F)nc2-c2ccc(F)cc2)cc1 (centres unmarked) [Example 90, 4-(4-Fluorophenyl)-5-(4-(methylsulfonyl)phenyl]-a-(trifluoromethyl)-1H-imidazole-2-methanol]	–	–	–
0.2	> 100	257 °C	CC(=O)n1c(C(F)(F)F)nc(-c2ccc(S(C)(=O)=O)cc2)c1-c1cc(C)cc(Cl)c1 [Example 58, 1-[5-(3-Chloro-5-methylphenyl)-4-[4-(methylsulfonyl)phenyl]-2-(trifluoromethyl)-1H-imidazol-1-yl]ethanone]	14	–	–
